Results taken from PMC5336470, “Insights into the mechanism of membrane pyrophosphatases by combining experiment and computer simulation” (Structural Dynamics, 2017).

Target: T1, VrPPase (Vigna radiata, UniProt P21616)
T1 construct: VrPPase reconstituted into liposomes (proteoliposomes); homodimer
T1 sequence (P21616 2-766): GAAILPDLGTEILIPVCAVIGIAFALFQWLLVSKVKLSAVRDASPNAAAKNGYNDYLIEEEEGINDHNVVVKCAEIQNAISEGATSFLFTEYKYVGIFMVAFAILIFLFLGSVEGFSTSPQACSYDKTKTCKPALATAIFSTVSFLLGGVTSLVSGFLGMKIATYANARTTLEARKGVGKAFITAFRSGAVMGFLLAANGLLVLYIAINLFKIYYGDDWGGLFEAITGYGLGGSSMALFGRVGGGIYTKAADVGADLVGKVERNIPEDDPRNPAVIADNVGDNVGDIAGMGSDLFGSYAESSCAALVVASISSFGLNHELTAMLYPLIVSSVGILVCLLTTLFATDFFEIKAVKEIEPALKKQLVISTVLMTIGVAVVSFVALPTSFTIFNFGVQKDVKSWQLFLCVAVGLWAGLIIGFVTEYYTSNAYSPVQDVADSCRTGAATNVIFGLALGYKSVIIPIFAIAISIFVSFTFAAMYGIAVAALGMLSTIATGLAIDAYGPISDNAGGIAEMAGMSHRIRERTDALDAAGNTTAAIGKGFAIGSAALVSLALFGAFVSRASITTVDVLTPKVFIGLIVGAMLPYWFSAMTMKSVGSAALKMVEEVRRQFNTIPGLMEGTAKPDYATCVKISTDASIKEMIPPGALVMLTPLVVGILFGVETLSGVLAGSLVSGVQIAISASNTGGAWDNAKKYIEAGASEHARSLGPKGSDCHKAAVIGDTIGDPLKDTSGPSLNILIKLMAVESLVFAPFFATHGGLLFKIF
Experiment: SURFE2R N1 electrometric proton-pumping current, proteoliposomes
Assay type: biochemical
Conditions: 200 uM K2HPO4 as control, 10 uM CCCP as protonophore control

## O=P(O)(O)CP(=O)(O)O [methylene diphosphonate]
50 uM MEDP, non-hydrolysable substrate analogue
  SURFE2R N1 electrometric proton-pumping current, proteoliposomes: VrPPase in the presence of another substrate analogue, methylene diphosphonate (MEDP), similarly produces a change

## O=P(O)(O)OP(=O)(O)O [pyrophosphate]
50 uM K4PPi
  SURFE2R N1 electrometric proton-pumping current, proteoliposomes: Addition of CCCP to membrane-embedded VrPPase in the presence of PPi reduces the ion-pumping current

## O=P(O)(O)NP(=O)(O)O [imidodiphosphate]
50 uM IDP, non-hydrolysable substrate analogue
  SURFE2R N1 electrometric proton-pumping current, proteoliposomes: IDP-bound VrPPase specifically pumps protons
